Tests used:
calcium homeostasis = conditions: in animals and humans; cited from earlier work
[1] = U.S. Pat. No. 5,397,776; cited from earlier work
vitamin D receptor = conditions: U.S. Pat. No. 5,397,776; cited from earlier work
[2] = tested on: progesterone receptor (PR); conditions: U.S. Pat. No. 5,397,776; cited from earlier work
progesterone receptor = target: T1, progesterone receptor (Homo sapiens, UniProt P06401); assay: Competitive binding of test compounds vs 3H-R5020 to the progesterone receptor (MCF-7 cytosol); conditions: for Total Binding (DPM) ± S.D.: 3H-R5020 (20 nM) bound; for Total Binding (DPM) ± S.D. / inhibition: competitor at 400× fold excess, 12-14 hours on ice; for binding to the PR (in words): compared with 20-oxopregnacalciferol where stated; for inhibition: of 3H-R5020 (20 nM) binding
T1 construct: The source of the progesterone receptor is the cytosolic fraction of MCF-7 cells (human breast cancer cell line); endogenous in cells; host or cells: MCF-7 cells (human breast adenocarcinoma), cytosolic fraction, 10 nM estradiol for 24 h before harvest
T1 sequence (P06401 1-933): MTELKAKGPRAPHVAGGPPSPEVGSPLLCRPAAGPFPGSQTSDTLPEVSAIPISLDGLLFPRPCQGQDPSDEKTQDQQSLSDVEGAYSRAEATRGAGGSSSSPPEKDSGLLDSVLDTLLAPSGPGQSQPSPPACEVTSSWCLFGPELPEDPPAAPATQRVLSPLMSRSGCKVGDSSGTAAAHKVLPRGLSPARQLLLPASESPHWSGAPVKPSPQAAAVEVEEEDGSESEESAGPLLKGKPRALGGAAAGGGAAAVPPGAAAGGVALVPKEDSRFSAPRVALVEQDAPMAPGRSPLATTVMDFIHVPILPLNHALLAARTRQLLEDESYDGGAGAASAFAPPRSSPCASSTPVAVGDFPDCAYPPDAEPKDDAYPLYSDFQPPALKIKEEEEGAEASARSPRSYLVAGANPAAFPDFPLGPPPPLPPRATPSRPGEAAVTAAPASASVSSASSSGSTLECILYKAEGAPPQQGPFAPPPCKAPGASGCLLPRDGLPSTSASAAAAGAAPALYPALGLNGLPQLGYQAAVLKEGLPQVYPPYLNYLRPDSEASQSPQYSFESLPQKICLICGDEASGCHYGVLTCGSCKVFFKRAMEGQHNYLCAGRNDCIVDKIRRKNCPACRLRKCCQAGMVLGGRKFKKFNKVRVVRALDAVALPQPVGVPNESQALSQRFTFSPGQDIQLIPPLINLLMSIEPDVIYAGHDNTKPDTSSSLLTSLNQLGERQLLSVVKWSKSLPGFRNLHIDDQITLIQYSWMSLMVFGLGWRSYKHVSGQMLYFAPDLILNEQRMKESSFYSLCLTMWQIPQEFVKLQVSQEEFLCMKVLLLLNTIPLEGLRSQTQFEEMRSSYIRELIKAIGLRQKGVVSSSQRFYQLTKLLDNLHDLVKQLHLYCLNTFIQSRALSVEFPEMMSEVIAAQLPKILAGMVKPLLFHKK
Procedure: Cell culture and extract preparation: Human Breast Adenocarcinoma cells (MCF-7 cells) extract is used as the progesterone receptor source. The cells were grown to confluency in phenol red-free DMEM with 10% calf serum. After replacing the medium, the cells were dosed with 10 nM Estradiol and incubated for an additional 24 hours to induce the expression of the progesterone receptor. The cells were washed with Hanks Balanced Salt Solution (HBSS: 5.0 mM KCl, 0.3 mM KH2 PO4, 138 mM NaCl, 4.0 mM NaHCO3, 0.3 mM Na2HPO4, 5.6 mM D-Glucose, 1.3 mM CaCl2 and 0.5 mM MgCl2.6H2O) and then incubated with Ca/Mg-free HBSS+1 mM EDTA for 5-10 minutes at 37° C. After harvesting, the cells were pelleted by centifugation for 5.0 minutes at 4.0° C. The cell pellet was then resuspended in TDG buffer (10 mM Tris-HCl, pH 7.4, 0.5 mM DTT and 50% Glycerol) and sonicated for 15 seconds. The cytosolic fraction was obtained by centrifugation at 50,000 RPM for 20 minutes in TLA 100.2 rotor. The supernatent (cytosol) was removed and stored on ice for use in the binding assay. The Cytosolic fraction was always prepared fresh. Binding Assay: The ability of the test compounds to compete for binding to the progesterone receptor was tested as follows: 1--The incubation mix consisted of the following: 100 μl 3H-R5020 (20 nM) 5 μl Ethanol or test compound in the ethanol providing a 400 fold excess of compound 100 μl MCF-7 Cell Extract 2--The mixture was incubated 12-14 hours on ice. 3--250 μl of 50% HAP slurry was added+3 mL of TDG buffer. 4--The samples are allowed to sit on ice for 30 minutes with vortexing every 10 minutes. 5--The HAP was pelleted by centrifugation at 1500 rpms for 3 minutes. 6--The pellet was washed three more times with TDG buffer. 7--The final pellet was resuspended in 1 ml Ethanol, vortexed and allowed to sit at room temperature for 30 minutes with vortexing every 10 minutes. 8--The samples were finally centrifuged at 2000 rpms. The supernatent was removed, mixed with counting fluid and the amount of radioactivity in each sample was determined by counting in a beta scintillation counter. 1--The source of the progesterone receptor is the cytosolic fraction of MCF-7 cells (human breast cancer cell line) which were dosed with Estradiol 24 hours prior to harvesting and processing. 2--The cytosolic fractions used in all the binding measurements were freshly prepared. No frozen extracts were used. 3--All competitive compounds were added at 400× fold excess of the labelled R5020.

glucocorticosteroid = conditions: Teutsch et al, U.S. Pat. No. 4,386,085; cited from earlier work
progesterone = conditions: Teutsch et al, U.S. Pat. No. 4,386,085; cited from earlier work
pregnancy = conditions: used in conjunction with synthetic prostaglandins; cited from earlier work

| Total Binding (DPM) ± S.D. (progesterone receptor) [DPM] | inhibition (progesterone receptor) [%] | SMILES | binding to the PR (in words) (progesterone receptor) | further results |
| --- | --- | --- | --- | --- |
| 3616 ± 171 | 24 | CC(=O)[C@H]1CC[C@H]2/C(=C/C=C3CCCCC3)CCC[C@]12C [6a, 19-Nor-3-desoxy-20-oxopregnacalciferol] |  | binding to the PR, lesser degree than 20-oxopregnacalciferol (progesterone receptor; compared with previously synthesized 20-oxopregnacalciferol): 40% |
| 2531 ± 165 | 47 | CC(=O)[C@H]1CC[C@H]2/C(=C/C=C3CCC4(CC3)OCCO4)CCC[C@]12C [6b, 19-Nor-3-desoxy-2-ethylene ketal-20-oxopregna-calciferol] | did also bind to the PR but to a lesser degree |  |
| 2036 ± 133 | 58 | CC(=O)[C@H]1CC[C@H]2/C(=C/C=C3CCC(=O)CC3)CCC[C@]12C [6c, 19-Nor-3-desoxy-2,20-dioxopregnacalciferol] | almost the same binding activity to the PR |  |
| 1950 ± 170 | 59 | C=C1CC[C@H](O)C/C1=C/C=C1\CCC[C@]2(C)[C@@H](C(C)=O)CC[C@@H]12 [20-oxopregnacalciferol, 20-oxo-pregnacalciferol] |  | calcemic activity (in words) [1]: None of the above three compounds had any calcemic activity; binding to the vitamin D receptor (in words) (vitamin D receptor): nor did they bind to the vitamin D receptor; binding to the PR (in words) [2]: did bind to the PR |
| 750 ± 231 |  | CCC(=O)[C@@]1(C)CC[C@H]2[C@@H]3CCC4=CC(=O)CCC4=C3CC[C@@]21C [R5020, reference compound] |  |  |

More lines, now with the values behind:

| SMILES | Total Binding (DPM) ± S.D. (progesterone receptor) [DPM] | inhibition (progesterone receptor) [%] | binding to the PR (in words) (progesterone receptor) | further results |
| --- | --- | --- | --- | --- |
| C=C1/C(=C\C=C2/CCC[C@]3(C)[C@@H]([C@H](C)/C=C/[C@H](C)C(C)(C)O)CC[C@@H]23)C[C@@H](O)C[C@@H]1O [1α,25-dihydroxyvitamin D2] |  |  |  | regulation of calcium homeostasis (in words) (calcium homeostasis): highly potent regulators of calcium homeostasis |
| C=C1/C(=C\C=C2/CCC[C@]3(C)[C@@H]([C@H](C)CCCC(C)(C)O)CC[C@@H]23)C[C@@H](O)C[C@@H]1O [1α,25-dihydroxyvitamin D3] |  |  |  | regulation of calcium homeostasis (in words) (calcium homeostasis): highly potent regulators of calcium homeostasis |
| C=C1/C(=C\C=C2/CCC[C@]3(C)[C@@H](C(C)=O)CC[C@@H]23)C[C@@H](O)C[C@@H]1O [1α-hydroxy-20-oxopregnacaliciferol] |  |  |  | calcemic activity (in words) [1]: None of the above three compounds had any calcemic activity; binding to the vitamin D receptor (in words) (vitamin D receptor): nor did they bind to the vitamin D receptor; binding to the PR (in words) [2]: prevents binding to the PR |
| C[C@H](CO)[C@H]1CC[C@H]2/C(=C/C=C3CCCCC3)CCC[C@]12C [4a, 19-Nor-3-desoxy-22-hydroxy-homopregnacalciferol] | 4139 ± 62 | 13 | did also bind to the PR |  |
| C[C@H](CO)[C@H]1CC[C@H]2/C(=C/C=C3CCC4(CC3)OCCO4)CCC[C@]12C [4b, 19-Nor-3-desoxy-2-ethylene ketal-22-hydroxyhomopregnacalciferol] | 2881 ± 152 | 40 | did also bind to the PR but to a lesser degree |  |
| C[C@H](C=O)[C@H]1CC[C@H]2/C(=C/C=C3CCCCC3)CCC[C@]12C [5a, 19-Nor-3-desoxy-homopregnacalciferol 22-aldehyde] | 3045 ± 90 | 36 | did also bind to the PR | binding to the PR, times more than the 20-ketone 6a (progesterone receptor; compared with 20-ketone 6a): 1.5 times |
| C[C@H](C=O)[C@H]1CC[C@H]2/C(=C/C=C3CCC4(CC3)OCCO4)CCC[C@]12C [5b, 19-Nor-3-desoxy-2-ethylene ketal-homopregnacalciferol 22-aldehyde] | 2546 ± 120 | 47 | did also bind to the PR but to a lesser degree |  |
| CC(=O)[C@H]1CC[C@H]2/C(=C/C=C3C[C@@H](O)C[C@H](O)C3)CCC[C@]12C [19-nor-1α-hydroxy-20-oxopregnacalciferol] |  |  |  | calcemic activity (in words) [1]: None of the above three compounds had any calcemic activity; binding to the vitamin D receptor (in words) (vitamin D receptor): nor did they bind to the vitamin D receptor; binding to the PR (in words) [2]: prevents binding to the PR |
| CC#C[C@]1(O)CC[C@H]2[C@@H]3CCC4=CC(=O)CCC4=C3[C@@H](c3ccc(N(C)C)cc3)C[C@@]21C [RU 486] |  |  |  | antiglucocorticosteroid activity (in words) (glucocorticosteroid): strong; antiprogesterone activity (in words) (progesterone): strong; termination of pregnancy (in words) (pregnancy): terminates pregnancy |
